Patent publication US9765026B2, “Forms of apremilast and the process of making the same” (ScinoPharm Taiwan, Ltd., priority 2015, dated 2017)

Legend:
[1] = Dynamic Vapor Sorption (DVS) analysis of moisture uptake and release; format: physicochemical; conditions: for hygroscopicity (conclusion from DVS): cycling between 0% and 90% RH
Description: Dynamic Vapor Sorption (DVS)
The sample was placed into the DVS sample pan and dried under a stream of dry nitrogen at 25° C. (0% RH). The moisture was gradually introduced into the system with a 10% RH increment up to 90% RH and the humidity was then decreased in a similar trend for desorption phase. The sorption and desorption data were collected with equilibration set to dm/dt 0.004%/min for 5 min/step. The minimum and maximum time for each step were set to 10 and 360 min. Two sorption/desorption cycles were performed.

[2] = Stability at 40° C./75% RH; format: physicochemical; conditions: 40° C./75% RH for 4 weeks
Description: In comparison with the form F disclosed in U.S. Pat. No. 8,093,293, Form 3 and Form 4 in the present disclosure needs less process time to be prepared and is stable even at 40° C./75% RH for 4 weeks.

Row | Structure (SMILES) | water content ([1]; RH 90% (FIG. 5B)) | hygroscopicity (conclusion from DVS) [1] | weight gained ([1]; at 10% RH (FIG. 12)) | change in sample weight ([1]; humidity increased from 10% to 90% RH (FIG. 12)) | stability on storage [2] | maximum moisture uptake ([1]; cycling between 0% and 90% RH (FIG. 15))
1 | CCOc1cc([C@@H](CS(C)(=O)=O)N2C(=O)c3cccc(NC(C)=O)c3C2=O)ccc1OC [Form II, apremilast] | 4.5% | hygroscopic | – | – | – | –
2 | CCOc1cc([C@@H](CS(C)(=O)=O)N2C(=O)c3cccc(NC(C)=O)c3C2=O)ccc1OC [Form 4, apremilast] | – | non-hygroscopic | about 3.3% | no significant change | stable | –
3 | CCOc1cc([C@@H](CS(C)(=O)=O)N2C(=O)c3cccc(NC(C)=O)c3C2=O)ccc1OC [amorphous apremilast, apremilast] | – | hygroscopic | – | – | – | about 2.5 % of the total mass of the sample
4 | CCOc1cc([C@@H](CS(C)(=O)=O)N2C(=O)c3cccc(NC(C)=O)c3C2=O)ccc1OC [Form 3, apremilast] | – | – | – | – | stable | –
